Test results published in patent US20190125864A1, “COMBINATION THERAPY OF RAMUCIRUMAB AND ABEMACICLIB FOR USE IN TREATMENT OF MANTLE CELL LYMPHOMA” (Eli Lilly and Company, priority 2016, published 2019).

System: human Mino xenografts
Test: IVEF study: growth inhibition of subcutaneous Mino xenografts (mantle cell lymphoma) in mice
Type: in vivo
Conditions: for % ΔT/C: day 53, baseline day 32
Method: This study evaluates the overall sensitivity of the Mino xenograft model for mantle cell lymphoma (MCL) to growth inhibition by abemaciclib. Accordingly, mice are implanted subcutaneously with human Mino xenografts treated once-daily for 28 days (QD×28) with 25 or 50 mg/kg of abemaciclib monomesylate (“compound”). In addition the response of this model to single-agent DC101, an antibody inhibitor of VEGFR2, is also evaluated as well as the combination of this antibody with abemaciclib. DC101, which is a mouse surrogate of ramucirumab, is evaluated in these studies at a dose of 20 mg/kg given twice-weekly over a period of 4 weeks (BIW×4) whereas mice in the combination group are given this dose of DC101 plus 25 mg/kg of abemaciclib. Tumor volume measurements are taken periodically to determine the effects of the various treatments on tumor growth and periodic body weight measurements are used as a general indicator of tolerability.
Female Fox Chase CB17SCID (Harlan Laboratories) mice are used for these studies. The animals are housed until they reach 18-20 […] in size.
The compound is formulated in 1% hydroxyethyl cellulose (HEC) in 25 mM phosphate buffer (PB) pH=2. The compound is formulated on a weekly basis and stored at 4° C. For the efficacy studies, the compound is administered by oral gavage once-daily for 28 days (PO, QD×28) at doses of 25 or 50 mg/kg using 0.2 ml/dose beginning on day 33 after tumor implantation. The control group is given 1% HEC vehicle according to the same schedule for the compound. The mouse surrogate for ramucirumab known as DC101 is formulated in phosphate buffered saline (PBS) and is given twice-weekly (BIW) for 4 weeks as an intraperitoneal (IP) injection at a dose of 20 mg/kg beginning on day 34. Mice in the combination group are given 25 mg/kg of the compound and 20 mg/kg of DC101 following the schedules outlined above for the monotherapy groups.
The human MCL line Mino is grown in RPMI 1640 medium+20% fetal bovine serum (FBS). Sub-confluent cells are harvested and rinsed twice with Hank's balanced saline solution (HBSS) without serum. For subcutaneous tumors, growth is initiated by subcutaneous injection of 5×10^6 cells in a 1:1 mixture of HBSS and MATRIGEL® (BD Bioscience, Franklin Lakes, N.J.) in the rear flank of each subject animal. When mean tumors volumes reach approximately 150 mm^3 in size, the animals are randomized by tumor size and body weight using a proprietary block randomization allocation tool and placed into their respective treatment groups using 7 animals per group.
Tumor size and body weight are captured using WEB DIRECTOR™. Tumor volume (V) is estimated by using the formula: V=0.536L×W^2 where L=larger of measured diameter and W=smaller of perpendicular diameter. The tumor volume data is transformed to a log scale to equalize variance across time and treatment groups. The log volume data ae analyzed with a two-way repeated measures analysis of variance by time and treatment using the MIXED procedures in SAS software (Version 9.3). The correlation model for the repeated measures is Spatial Power. Treated groups are compared to the control group at each time point. The MIXED procedure is also used separately for each treatment group to calculate adjusted means and standard errors at each time point. Both analyses accounted for the autocorrelation within each animal and the loss of data that occur when animals with large tumors are removed from the study early. The adjusted means and standard errors are plotted for each treatment group versus time.
Relative changes in tumor volume (% ΔT/C) are calculated using the tumor volume measurements taken on the day (day 53) when the control group has to be sacrificed due to tumor sizes that exceeded the threshold defined by ethical guidelines. […]

CCN1CCN(Cc2ccc(Nc3ncc(F)c(-c4cc(F)c5nc(C)n(C(C)C)c5c4)n3)nc2)CC1 [Compound, [5-(4-ethyl-piperazin-1-ylmethyl)-pyridin-2-yl]-[5-fluoro-4-(7-fluoro-3-isopropyl-2-methyl-3H-benzoimidazol-5-yl)-pyrimidin-2-yl]-amine]
% ΔT/C (25 mg/kg Compound PO QD×28, 25 mg/kg): 5.2%
% ΔT/C (25 mg/kg Compound PO QD×28, listed as compound, 25 mg/kg): approximately 5%
% ΔT/C (50 mg/kg Compound PO QD×28, negative value = % regression): −63.6%
Mean Tumor Volume (day 53, 25 mg/kg Compound PO QD×28, CB17SCID mice, subcutaneous Mino xenografts): 317.4 mm^3
Mean Tumor Volume (day 53, 50 mg/kg Compound PO QD×28, CB17SCID mice, subcutaneous Mino xenografts): 55.4 mm^3
mice achieved a partial response (PR) (day 53, 50 mg/kg abemaciclib, 7 of 7 mice): 100%
mean tumor volume reduced (regression) (day 53, 50 mg/kg compound): 64%
Mean Tumor Volume (day 60 (last day of dosing), 25 mg/kg Compound PO QD×28): 348.6 mm^3
Mean Tumor Volume (day 60 (last day of dosing), 50 mg/kg Compound PO QD×28): 37.9 mm^3
